Measurements published in patent publication US20240041830A1, “CIRCULATING BIOMARKERS OF RESPONSE TO PD-1/PD-L1 BLOCKADE AND GSK-3 INHIBITION” (Brown University, priority 2022, published 2024).

What was measured:
[1] = Luminex 200 analysis of patient plasma (NCT03678883); assay type: in vivo, human; details: eight hours and twenty-four hours after treatment
[2] = test system: KM12C; assay: microarray analysis; assay type: cell-based, human; details: 1 μM, 24 hours, vs untreated
[3] = test system: Saos-2 osteosarcoma; assay: Western blot analysis; assay type: cell-based; details: IC50, 48 hours
Experimental: (§1) Western blot analysis. Cells were plated in a 6-well plate and incubated overnight before the spent media was replaced with drugged media. Drug treatment lasted for indicated durations. Protein was extracted using radioimmunoprecipitation (RIPA) assay buffer (Cat #R0278, Sigma-Aldrich, St. Louis, MO, USA) containing cOmplete™, Mini, EDTA-free Protease Inhibitor Cocktail (Cat #4693159001, Roche, Basel, Switzerland) from sub-confluent cells. Denaturing sample buffer was added, samples were boiled at 95° C. for ten minutes, and an equal amount of protein lysate was electrophoresed through NuPAGE™ 4 to 12%, bis-Tris, 1.5 mm, Mini Protein Gels (Invitrogen, Waltham, MA, USA) then transferred to PVDF membranes. The PVDF membrane was blocked with 5% non-fat milk (Sigma-Aldrich, St. Louis, MO, USA) in 1× TTBS. Primary antibodies were incubated with the transferred PVDF membrane in blocking buffer at 4° C. overnight. Secondary antibodies included Goat anti-Rabbit IgG (H+L) Secondary Antibody, HRP (Cat #31460, Invitrogen, Waltham, MA, USA), and Goat anti-Mouse IgG (H+L) Secondary Antibody, HRP (Cat #31430, Invitrogen, Waltham, MA, USA). The signal was detected using Pierce™ ECL Western Blotting Substrate (Cat #32106, Thermo Scientific, Waltham, MA, USA) and a Syngene Imaging System (RRID: SCR_015770).
(§2) Saos-2 osteosarcoma and 93T449 liposarcoma cell lines were pretreated at IC50 with elraglusib. The cells were harvested for Western blot analysis after 48 hours of treatment. Both cancer cell lines as well as TALL-104 T-cells and NK-92 NK cells were treated with 0.5 μM elraglusib for twenty-four hours and harvested for Luminex cytokine profiling.

[4] = test system: 93T449 liposarcoma; assay: Western blot analysis; assay type: cell-based; details: IC50, 48 hours
Experimental: as §1, §2

[5] = test system: TALL-104; assay: microarray analysis; assay type: cell-based, human; details: 1 μM, 24 hours, vs untreated
Experimental: Microarrays. A total of 0.5×10^6 tumor cells (HCT-116, HT-29, KM12C) were plated in a 6-well plate and allowed to adhere overnight before 24-hour treatment, as indicated. Then, 1×10^6 immune cells (NK92, TALL-104) were plated and treated with elraglusib as indicated for twenty-four h. RNA was isolated from cell pellets in batches of six using a RNeasy Plus Mini Kit (Cat #74134, Qiagen, Hilden, Germany). Acceptable RNA concentration and quality were verified with Nanodrop and Bioanalyzer measurements. GeneChip™ Human Transcriptome Array 2.0 assays were conducted according to manufacturer instructions in two batches using randomized samples to limit batch effects (Cat #902162, Applied Biosystems, Waltham, MA, USA). Applied Biosystems Transcriptomic Analysis Console (TAC) software (RRID: SCR_016519) was used to calculate fold changes in gene expression relative to the untreated control cells. Values were considered statistically significant for p values<0.05.
Microarray analysis was used to obtain insights into gene expression changes in immune cell lines post-GSK-3 inhibition with elraglusib. Immune cell lines (TALL-104, NK-92) were treated with elraglusib at IC50 concentrations or DMSO as vehicle control for twenty-four hours and treated versus untreated samples were compared in triplicate using microarray analysis. FIG. 11. Results were calculated using a fold-change (FC) cutoff of >1.5, <−1.5, and a minimum p-value of <0.05. NK-92 cells had sixty-one differentially expressed genes post-treatment (FIG. 3D). the inventors observed an increase in genes that promote immune cell proliferation (TNFSF14, RAB38) and control immune cell adhesion and migration (WNK1) post-elraglusib treatment.
TABLE 12 description. TALL-104 immune cell microarray analysis. TALL-104 immune cells were treated with 1 μM elraglusib for 24 hours and treated versus untreated control samples were compared in triplicate via microarray analysis (N=3). Table showing differentially expressed genes of interest with their corresponding fold changes, p values, descriptions, and functions. Genes are ordered by fold change and were calculated using a fold change cutoff of >1.5, <−1.5, and a minimum p value of <0.05.

## Cn1cc(C2=C(c3coc4ccc(F)cc34)C(=O)NC2=O)c2cc3c(cc21)OCO3 [elraglusib]
[1]
  plasma cytokines, chemokines, growth factors vs baseline: upregulated
[2]
  AGGF1 Fold Change: −1.6
  BARD1 Fold Change: −3.03
  BCL9 Fold Change: −1.55
  BIK Fold Change: 1.51
  BRAF Fold Change: −2.05
  BRCA1 Fold Change: −1.71
  BRD3 Fold Change: −1.58
  CCND2 Fold Change: −1.58
  CCNE1 Fold Change: −1.57
  CCNE2 Fold Change: −2.64
  CD109 Fold Change: −2.09
  CDC25C Fold Change: −1.55
  CDCA2 Fold Change: −1.51
  CDK1 Fold Change: −2
  CXCL1 Fold Change: −1.53
  E2F7 Fold Change: −2.5
  E2F8 Fold Change: −3.16
  ERBB2IP Fold Change: −1.88
  FZD3 Fold Change: −1.76
  GDF15 Fold Change: −2.29
  GZMA Fold Change: 1.53
  IGF2BP2 Fold Change: −1.51
  IL6ST Fold Change: −1.88
  IL27RA Fold Change: −1.72
  IL32 Fold Change: 1.55
  IRF2BP2 Fold Change: −1.6
  JMY Fold Change: −2.03
  LTBP1 Fold Change: −2.24
  MAP2K6 Fold Change: −3.66
  MAP3K1 Fold Change: −1.92
  MDM2 Fold Change: −1.61
  MET Fold Change: −1.79
  MKI67 Fold Change: −1.53
  MTBP Fold Change: −1.58
  MTDH Fold Change: −1.74
  NFKBIA Fold Change: −2.51
  NRP1 Fold Change: −1.88
  TAB3 Fold Change: −1.63
  TGFBR2 Fold Change: −2.11
  TGFBR3 Fold Change: −3.72
  TLR3 Fold Change: −2.25
  TNFRSF1B Fold Change: −1.56
  TNFRSF10A Fold Change: −1.54
  TNFRSF11A Fold Change: −1.64
  TNFRSF12A Fold Change: 1.53
  TNIK Fold Change: −1.59
  TRAF5 Fold Change: −1.52
  TRAF6 Fold Change: −1.57
  TRAIP Fold Change: 1.53
  TRIB1 Fold Change: −2.37
[3]
  cPARP: increase
[3]; cell line not given
  PD-L1 expression: increase
[4]
  cPARP: increase
[4]; cell line not given
  PD-L1 expression: increase
[5]
  ACVR1B Fold Change: −1.61
  BCL2A1 Fold Change: 1.63
  CAMK1D Fold Change: −2.5
  CCL3 Fold Change: 1.52
  CCR8 Fold Change: −2.14
  CD84 Fold Change: −1.53
  CKS1B Fold Change: 1.6
  DUSP6 Fold Change: −1.66
  HSPA1A Fold Change: −1.63
  KIF7 Fold Change: 1.56
  ORAI3 Fold Change: 1.51
  PPARA Fold Change: −1.54
  PTPN3 Fold Change: −1.56
  PTPN14 Fold Change: −1.62
  RNY4 Fold Change: 2.19
  RNY5 Fold Change: 1.66
  STX19 Fold Change: 1.58
  UBE3A Fold Change: −1.73
  VAMP8 Fold Change: 1.56
